Laboratory results as given in Sander's compilation of Henry's law constants (doi:10.1016/j.hazl.2022.100070).

Test: Henry solubility constant Hcp at 298.15 K (mol/(m3 Pa))
Settings: reference: Abusallout et al. (2022)

Row | Structure (SMILES) | Henry solubility constant Hcp
1 | FC(F)(F)C(F)(F)C(F)(F)C(F)(F)C(F)(F)C(F)(F)CCI [1,1,1,2,2,3,3,4,4,5,5,6,6-tridecafluoro-8-iodooctane] | 0.0013
2 | OCCC(F)(F)C(F)(F)C(F)(F)C(F)(F)C(F)(F)C(F)(F)F [1H,1H,2H,2H-perfluoro-1-octanol] | 0.00033
3 | O=S(=O)(O)CCC(F)(F)C(F)(F)C(F)(F)C(F)(F)C(F)(F)C(F)(F)C(F)(F)C(F)(F)F [1H,1H,2H,2H-perfluorodecane sulfonic acid] | 0.0022
4 | O=S(=O)(O)CCC(F)(F)C(F)(F)C(F)(F)C(F)(F)C(F)(F)C(F)(F)F [1H,1H,2H,2H-perfluorooctane sulfonic acid] | 0.0021
5 | O=C(O)CC(F)(F)C(F)(F)C(F)(F)C(F)(F)C(F)(F)C(F)(F)C(F)(F)C(F)(F)F [2H,2H-perfluorodecanoic acid] | 0.00058
6 | CCNS(=O)(=O)C(F)(F)C(F)(F)C(F)(F)C(F)(F)C(F)(F)C(F)(F)C(F)(F)C(F)(F)F [N-ethylperfluorooctanesulfonamide] | 0.00094
7 | CNS(=O)(=O)C(F)(F)C(F)(F)C(F)(F)C(F)(F)C(F)(F)C(F)(F)C(F)(F)C(F)(F)F [N-methylperfluorooctanesulphonamide] | 0.00044
8 | FC(F)(F)C(F)(F)C(F)(F)C(F)(F)C(F)(F)C(F)(F)I [perfluorohexyl iodide] | 0.00046

Now from value to compound:

Row | Henry solubility constant Hcp | Structure (SMILES)
9 | 0.0013 | C=CC(=O)OCCC(F)(F)C(F)(F)C(F)(F)C(F)(F)C(F)(F)C(F)(F)C(F)(F)C(F)(F)F
10 | 0.00014 | OCCC(F)(F)C(F)(F)C(F)(F)C(F)(F)C(F)(F)C(F)(F)C(F)(F)C(F)(F)C(F)(F)C(F)(F)F [1,1,2,2-tetrahydroperfluoro dodecanol]
11 | 0.0002 | OCCC(F)(F)C(F)(F)C(F)(F)C(F)(F)C(F)(F)C(F)(F)C(F)(F)C(F)(F)F [1H,1H,2H,2H-perfluorodecan-1-ol]
12 | 0.0013 | OCCC(F)(F)C(F)(F)C(F)(F)C(F)(F)F [1H,1H,2H,2H-perfluorohexan-1-ol]
13 | 0.0045 | O=S(=O)(O)CCC(F)(F)C(F)(F)C(F)(F)C(F)(F)F [1H,1H,2H,2H-perfluorohexane sulfonic acid]
14 | 0.00084 | FC(F)(F)C(F)(F)C(F)(F)C(F)(F)C(F)(F)C(F)(F)/C=C/I [1H,2H-perfluoro-1-iodooct-1-ene]
15 | 0.00011 | C=CC(F)(F)C(F)(F)C(F)(F)C(F)(F)C(F)(F)C(F)(F)F [(perfluorohexyl)ethene]
